{
  "source": "paper PMC10865409",
  "about": "“The prFMNH2-binding chaperone LpdD assists UbiD decarboxylase activation” (The Journal of Biological Chemistry, 2024)",
  "molecules": {"B1": {"name": "LpdD (lp_0272) from Lactobacillus plantarum, His-tagged (natural protein)", "chain": "MATFTTEQAGYQMQAILQVIGYDLLIVVTGGTNPHIGDVTTLTASTVPETVKFPSHDGRFHKDNFISERMAKRIQRYLAGSCTITAGIHVNQITKAQIAAAAPMTDDLSRQIISWLQAHPVQAEKPEYYGQDEQPR", "notes": "LpdD, small protein associated with the UbiD-type gallate decarboxylase LpdC, Lactobacillus plantarum, locus lp_0272; E. coli codon-optimized synthetic gene; N- and C-terminally His-tagged LpdD were both made (pET28a and pET30a); the best crystals came from the N-terminally tagged protein; The pull-down says only 'His-tagged LpdD'; The tag is detected by His-Western blot in the pull-down; also …"}, "B2": {"name": "LpdD H35A variant (natural protein, Lactobacillus plantarum)", "chain": "B1 chain with H35A", "notes": "LpdD, Lactobacillus plantarum, locus lp_0272, with H35A made by site-directed mutagenesis of the WT construct; source: E. coli BL21(DE3), purified"}},
  "key": {"LpdD [1]": {"biological_target": "T1, LpdD (Lactiplantibacillus plantarum, UniProt F9UT68, H61A)", "T1 construct": "full length, N-terminal hexahistidine tag (best crystals; C-terminal also made), E. coli codon-optimized gene, E. coli BL21(DE3), Ni-NTA; dimer", "T1 sequence (F9UT68 whole entry H61A)": "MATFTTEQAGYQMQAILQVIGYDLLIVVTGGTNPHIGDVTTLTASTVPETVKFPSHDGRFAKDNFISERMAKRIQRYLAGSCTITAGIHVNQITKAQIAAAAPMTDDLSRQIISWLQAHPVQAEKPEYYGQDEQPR", "experiment": "UV-Vis after in vitro reconstitution and desalting", "type": "binding", "settings": "anaerobic, 2:1 prFMNH2:protein, 50 mM Tris pH 7.5, 200 mM NaCl, 1 mM MnCl2"}, "LpdD [2]": {"biological_target": "T2, LpdD (Lactiplantibacillus plantarum, UniProt F9UT68)", "T2 construct": "full length, N-terminal hexahistidine tag (best crystals; C-terminal also made), E. coli codon-optimized gene, E. coli BL21(DE3), Ni-NTA; dimer", "T2 sequence (F9UT68 1-136)": "B1 chain", "experiment": "UV-Vis after in vitro reconstitution and desalting", "type": "binding", "settings": "anaerobic, 2:1 prFMNH2:protein, 50 mM Tris pH 7.5, 200 mM NaCl, with or without MnCl2"}, "[3]": {"biological_target": "T3, UbiD (Strep-tagged apo-UbiD) (Escherichia coli, UniProt P0AAB4)", "T3 construct": "Strep-tagged, purified apo-UbiD reconstituted with LpdD-containing E. coli lysate and prFMNH2; 4-hydroxybenzoate row is endogenous UbiD of E. coli BL21(DE3)", "T3 sequence (P0AAB4 1-497)": "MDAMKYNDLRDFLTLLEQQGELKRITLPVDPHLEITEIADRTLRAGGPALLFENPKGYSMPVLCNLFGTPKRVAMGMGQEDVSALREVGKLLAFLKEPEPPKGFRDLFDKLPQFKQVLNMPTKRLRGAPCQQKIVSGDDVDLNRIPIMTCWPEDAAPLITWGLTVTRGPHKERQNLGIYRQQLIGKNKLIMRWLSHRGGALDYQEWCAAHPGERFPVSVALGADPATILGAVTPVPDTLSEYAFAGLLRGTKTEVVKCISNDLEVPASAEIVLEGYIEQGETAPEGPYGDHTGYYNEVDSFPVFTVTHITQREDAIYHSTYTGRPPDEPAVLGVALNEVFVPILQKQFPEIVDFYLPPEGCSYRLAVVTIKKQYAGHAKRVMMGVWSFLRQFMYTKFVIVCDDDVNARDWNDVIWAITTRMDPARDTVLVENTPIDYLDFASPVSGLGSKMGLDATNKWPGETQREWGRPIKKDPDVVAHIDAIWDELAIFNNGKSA", "experiment": "decarboxylation by HPLC; Strep-UbiD plus LpdD-containing lysate", "type": "biochemical", "settings": "anaerobic; LpdD lysate supernatant with or without prFMNH2; purified UbiD alone inactive"}, "[4]": {"biological_target": "T3, UbiD (Strep-tagged apo-UbiD)", "experiment": "ESI-MS of reconstituted Strep-UbiD", "type": "binding", "settings": "reconstituted with LpdD-containing cell lysate and prFMNH2"}, "[5]": {"biological_target": "T4, Strep-tagged Escherichia coli UbiD (Escherichia coli, UniProt P0AAB4 1-497)", "T4 construct": "UbiD, prFMN-dependent decarboxylase of ubiquinone biosynthesis, Escherichia coli; also called Strep-UbiD; Strep-apo-UbiD; source: purified", "T4 sequence (looked up)": "T3 sequence (P0AAB4 1-497)", "experiment": "pull-down; Strep-tagged UbiD and His-tagged LpdD mixed in an equimolar ratio, pulled down with streptavidin beads under anaerobic conditions; SDS-PAGE and His-Western blot", "settings": "both partners purified"}, "[6]": {"biological_target": "the molecule itself", "experiment": "crystal structure; N-terminally His-tagged LpdD, ca 15 mg/ml, 1.6 M magnesium sulfate heptahydrate, 0.1 M Mes pH 6.5, 20 °C; space group I222, two monomers in the asymmetric unit; dimer built by crystallographic symmetry"}, "[7]": {"biological_target": "the molecule itself", "experiment": "crystal structure; LpdD H35A, space group P4_(1)2_(1)2, one molecule in the asymmetric unit, distinct crystallization conditions; dimer built by crystallographic symmetry"}},
  "note": "Positions count from the first letter of the chain named. Names and notes keep the numbering of the source.",
  "data": [
    {"molecule": "Cc1cc2c3c(c1C)C(C)(C)CCN3c1c([nH]c(=O)[nH]c1=O)N2C[C@H](O)[C@H](O)[C@H](O)COP(=O)(O)O", "note": "[prFMNH2]", "values": [
      {"measurement": "UV-Vis after in vitro reconstitution and desalting", "setting": "LpdD [1]", "result": "purified H61A variant reveals this mutation does not abolish prFMNH2 binding"},
      {"measurement": "UV-Vis after in vitro reconstitution and desalting", "setting": "LpdD [2]", "result": "In vitro reconstitution of purified apo-LpdD with prFMNH2 results in similar spectral features"}
    ]},
    {"molecule": "O=C(O)c1ccc(O)c(O)c1", "note": "[compound 2, 3,4-dihydroxy-benzoic acid]", "values": [
      {"measurement": "decarboxylation by HPLC; Strep-UbiD plus LpdD-containing lysate", "setting": "[3]", "result": "activity was observed when LpdD-containing cell lysate supernatant was included in the assays"}
    ]},
    {"molecule": "Cc1cc2c3c(c1C)C(C)(C)CC=[N+]3c1c(nc([O-])[nH]c1=O)N2C[C@H](O)[C@H](O)[C@H](O)COP(=O)(O)O", "note": "[prFMN^iminium]", "values": [
      {"measurement": "ESI-MS of reconstituted Strep-UbiD", "setting": "[4]", "result": "reconstituted Strep-UbiD reveals the presence of catalytically relevant prFMN^iminium species"}
    ]},
    {"molecule": "B1", "values": [
      {"measurement": "binding result", "setting": "[5]", "result": "binds"},
      {"measurement": "stoichiometry N", "setting": "[6]", "result": 2}
    ]},
    {"molecule": "B2", "values": [
      {"measurement": "stoichiometry N", "setting": "[7]", "result": 2}
    ]}
  ]
}
